This is an account of results in paper PMC4724696 (Acta Pharmaceutica Sinica. B, 2016).

Common to all, as to assay type: cell-based
Assay [1] deals with A375. Nature of the assay: Cell proliferation assay. The settings on record: Homo sapiens, A-375, 72 h, read-out: IC50 in cancer cell lines.
For assay [2], the system named is acetylation of histones H3, H4 and tubulin in HCT-116 colorectal cancer cells. Nature of the assay: Western Blot analysis of Ac-H3, Ac-H4 and Ac-tubulin. The settings on record: HCT-116 cells, various concentrations, 24 h.
Assay [3] deals with BxPC3. Nature of the assay: Cell proliferation assay. The settings on record: Homo sapiens, BXPC-3, 72 h, read-out: IC50 in cancer cell lines.
Assay [4] deals with SK-OV-3. Nature of the assay: Cell proliferation assay. The settings on record: Homo sapiens, SK-OV-3, 72 h, read-out: IC50 in cancer cell lines.

A word on the IC50: it is the concentration that gives 50% inhibition.

In the case of `O=C(CCCCCCC(=O)Nc1ccccc1)NO` [SAHA, Vorinostat], the half-maximal inhibitory concentration (IC50) in assay [1] was determined as 1860 ± 420 nM; in assay [3] it was 2240 ± 610 nM; in assay [4] it was 3570 ± 740 nM. The “acetylation of histones H3, H4 and tubulin” value in assay [2] was “Increased acetylated histones and tubulin levels”.
